In US5646136A, “Methods of inhibiting angiogenesis and tumor growth, and treating ophthalmologic conditions with angiostatic and therapeutic steroids” (Duke University, priority 1994, dated 1997):
Entries after “also recorded” stand apart in the source; their conditions may differ.

Columns and labels:
[1] = system: human pancreatic HPAF cell line; assay: Growth of human pancreatic HPAF tumor in nude mice; type: in vivo
Description: The HPAF tumor cell line is resistant to virtually all chemotherapeutic agents and grows rapidly in the nude mouse. Growth inhibition of this tumor for a period of time is thus indicative of significant anti-tumor activity.
Nude mice were implanted subcutaneously with 500,000 cells of the human pancreatic HPAF cell line. See Selvan et al., Drug Design and Discovery 9: […] (1992). Treatment with 9α-fluoro-11β-hydroxy-16β-methyl-1,4-androstadien-3-one 17β-carboxylic acid steroid (20 mg/kg subcutaneously in 90 percent propylene glycol-ethanol, injected twice daily 6 days per week) was commenced the following day and continued for one month. Growth of tumor was inhibited for about 3 weeks compared to controls. After this point, rapid growth ensued.

glucocorticoid activity = assay: Glucocorticoid activity (general statements)
[2] = system: corneal neovascularization; assay: Inhibition of corneal neovascularization in cauterized rat corneas, topical application four times per day for four days; type: in vivo; set-up: Neovascularization (total length of blood vessels in the cornea): unit not given here; settings: for Inhibition of corneal vascularization (significance, in words): applied topically; for Corneal angiogenesis score / Neovascularization (total length of blood vessels in the cornea): mean ± S.D.; for Corneal angiogenesis score: subjective score 1+ to 4+; for Percent Inhibition of neovascularization (angiogenesis score) / Percent Inhibition (total vessel length): versus vehicle
Description: (§1) The ability of etianic acids to inhibit angiogenesis was evaluated in vivo in rats. Each animal had its corneas cauterized with silver nitrate/potassium nitrate. The cauterization causes the normally avascular cornea to undergo neovascularization (anglogenesis). This animal model, refined by Proia et al., Lab. Invest. 58: 473-479 (1988) and now a well-established assay, quantifies corneal neovascularization by computerized image analysis. […] Ophthalmol. Vis. Science 30: 1588-1593 (1989), and can provide a more definitive evaluation of angiostatic activity than models using the chorioallantoic membrane in the chick egg or the rabbit eye model. See Proia et al., Exp. Eye Res. (in press--to be published in Vol. 57 in 1993).
(§2) Female rats were obtained from Zivic-Miller Laboratories, Zelienople, Pa. There were 6-8 rats included in each treatment group. Neovascularization was induced by cauterizing both corneas of each anesthetized rat; this was performed by applying the tip of a silver nitrate/potassium nitrate to the cornea for 5-7.5 seconds.
The corneal tissues were treated with steroid formulations.
Steroids were formulated in vehicle containing 10 percent Tween 20 (polyoxyethylene sorbitan monolaurate) dissolved in 0.9 percent saline with percent (by volume) 0.2M tris (hydroxymethyl)aminomethane, pH 7.4. […] All steroids were tested at a concentration of 1 percent; additionally, some formulations were also tested at 0.01 percent, 0.1 percent, and 2.5 percent. Three 10 μl drops of each concentration of steroid were applied topically to each cauterized cornea four times per day (8:00 a.m., noon, 4:00 p.m., and 8:00 p.m.).
(§3) After four days of treatment, the animals were euthanized by rapid asphyxiation in a carbon dioxide chamber. The vasculature was perfused with a mixture of 10 percent india ink/11 percent gelatin/lactated Ringer's solution. Corneal tissue was dissected and prepared as flat mounts. During dissection, the corneas were examined with a dissecting microscope, and the degree of neovascularization was graded numerically from 1+ to 4+. After dehydration with alcohols, cleaning with xylene, mounting, and drying, the area of each cornea and the length of blood vessels were determined by computerized image analysis.
Statistical evaluation of inhibition of corneal neovascularization by each concentration of drug was evaluated using Mann Whitney U Tests (one-tailed; P<0.05=significant difference). […] In all cases, however, image analysis was used to quantitatively confirm visual observations.

thymus = assay: Thymus weight of rats treated topically in the corneal angiogenesis study; type: in vivo, rat
Description: as §1, §2
(§4) Steroids were formulated in vehicle containing 10 percent Tween 20 (polyoxyethylene sorbitan monolaurate) dissolved in 0.9 percent saline with percent (by volume) 0.2M tris (hydroxymethyl)aminomethane, pH 7.4. The steroids dissolved readily when the pH was adjusted to 7.0-8.0 with NaOH or KOH. All steroids were tested at a concentration of 1 percent; additionally, some formulations were also tested at 0.01 percent, 0.1 percent, and 2.5 percent. Three 10 μl drops of each concentration of steroid were applied topically to each cauterized cornea four times per day (8:00 a.m., noon, 4:00 p.m., and 8:00 p.m.).
as §3

[3] = Body weight of rats treated topically in the corneal angiogenesis study; type: in vivo, rat
Description: as §1, §2, §4
After four days of treatment, the animals were euthanized by rapid asphyxiation in a carbon dioxide chamber. The vasculature was perfused with a mixture of 10 percent india ink/11 percent gelatin/lactated Ringer's solution. […] After dehydration with alcohols, cleaning with xylene, mounting, and drying, the area of each cornea and the length of blood vessels were determined by computerized image analysis.

[4] = system: corneal neovascularization; assay: Corneal angiogenesis inhibition, subcutaneous injection once/day; type: in vivo, rat
Description: as §1, §2, §3
The ability of compounds 2013, 518, and 513 to inhibit corneal angiogenesis when injected subcutaneously once/day to was assessed on rats prepared as described in Example 8. Dexamethasone was used as a positive control.

With “9α-fluoro-11β-hydroxy-16β-methyl-1,4-androstadien-3-one 17β-carboxylic acid” as the compound, how does the “Period for which growth of tumor was inhibited compared to controls” value ([1]; 20 mg/kg subcutaneously twice daily 6 days per week, one month) read?
Its value is “about 3 weeks”.

With `C=C1C[C@H]2[C@@H]3C=C(C)C4=CC(=O)C=C[C@]4(C)[C@H]3CC[C@]2(C)[C@@]1(OC(C)=O)C(C)=O` [1-dehydro melegesterol acetate, 17α-acetoxy-6-methyl-16-methylene-1,4,6-pregnatriene-3,20-dione] as the compound, how does the “Glucocorticoid activity (in words)” value (glucocorticoid activity) read?
Its value is “lacks glucocorticoid activity”.

Which “Glucocorticoid activity (in words)” value (glucocorticoid activity) does the source give for `C[C@]12C[C@](C)(O)[C@H]3[C@@H](CCC4=CC(=O)C=C[C@@]43C)[C@@H]1CC[C@@H]2O` [11β,17β-dihydroxy-11α-methyl-1,4-androstadien-3-one, reference compound] here?
Its value is “anti-glucocorticoid”.

Which “Inhibition of corneal vascularization (significance, in words)” value (from here on “Inhibition … (significance, in words)”) [2] does the source give for `C[C@]12CCC(=O)C=C1CC[C@@H]1[C@@H]2[C@@H](O)C[C@@]2(C)[C@H]1CC[C@]2(O)C(=O)O` [Compound 323, 17β-carboxyl-11β,17α-dihydroxy-4-androsten-3-one] here?
Its value is “did cause significant inhibition of corneal vascularization; also recorded: significantly suppressed”.

And the Corneal angiogenesis score ([2]; topical 0.01%)?
The Corneal angiogenesis score was 1.7 ± 1.1.

And the Corneal angiogenesis score ([2]; topical 0.1%)?
The Corneal angiogenesis score was 2.1 ± 0.5.

And the Corneal angiogenesis score ([2]; topical 1.0%)?
Its Corneal angiogenesis score is 1.3 ± 0.9.

And the “Percent Inhibition of neovascularization (angiogenesis score)” value ([2]; topical 1.0%)?
The value was 28%.

Which results are given for `C[C@H]1C[C@H]2[C@@H]3CCC4=CC(=O)C=C[C@]4(C)[C@@]3(F)[C@@H](O)C[C@]2(C)[C@@]1(O)C(=O)O` [Compound 513, 17β-carboxyl-11β,17α-dihydroxy-9α-fluoro-16β-methyl-1,4-androstadien-3-one]?
Degree of inhibition of corneal angiogenesis compared with dexamethasone ([2]; 1 percent compound topical vs 0.1 percent dexamethasone sodium phosphate): appeared similar to that caused by topically applied 0.1 percent dexamethasone sodium phosphate; Inhibition of corneal vascularization (significance, in words) [2]: did cause significant inhibition of corneal vascularization; Corneal angiogenesis score ([2]; topical 0.01%): 1.8 ± 0.4; Percent Inhibition of neovascularization (angiogenesis score) ([2]; topical 0.01%): 0%; Corneal angiogenesis score ([2]; topical 0.1%): 1.1 ± 0.9; Percent Inhibition of neovascularization (angiogenesis score) ([2]; topical 0.1%): 39%; Corneal angiogenesis score ([2]; topical 1.0%): 0.4 ± 0.4; Percent Inhibition of neovascularization (angiogenesis score) ([2]; topical 1.0%): 78%; Change in thymus weight (in words) (thymus; rat, in vivo): did not cause any significant change in thymus weight; Decrease of thymus weight from control (thymus; rat, in vivo): 45%; Thymus weight (thymus; rat, in vivo): 0.187±0.042 gm; Loss of body weight (in words) ([3]; rat, in vivo): no significant loss of body weight; Growth of HPAF tumor (in words) ([1]; nude mice): inhibits growth of the human HPAF pancreatic tumor in nude mice; Neovasc. ([4]; 10 mg/kg/day subcutaneous): 8.2 ± 1.1%; Reduction of corneal neovascularization versus vehicle ([4]; 10 mg/kg/day subcutaneous): -46.7%

Which “Inhibition … (significance, in words)” value [2] does the source give for `C[C@H]1C[C@@H]2[C@H]([C@@H](O)C[C@@]3(C)[C@H]2CC[C@]3(O)C(=O)O)[C@@]2(C)C=CC(=O)C=C12` [Compound 517, 17β-carboxyl-11β,17α-dihydroxy-6α-methyl-1,4-androstadien-3-one] here?
Its value is “did not significantly inhibit corneal vascularization”.

With `C[C@@H]1C[C@H]2[C@@H]3CCC4=CC(=O)C=C[C@]4(C)[C@@]3(F)[C@@H](O)C[C@]2(C)[C@@]1(O)C(=O)O` [Compound 518, 17β-carboxyl-11β,17α-dihydroxy-9α-fluoro-16α-methyl-1,4-androstadien-3-one] as the compound, how does the “Inhibition … (significance, in words)” value [2] read?
The value was “did not significantly inhibit corneal vascularization”.

And the Neovasc. ([4]; 10 mg/kg/day subcutaneous)?
Its Neovasc. is 15.7 ± 5.8%.

With `C[C@]12C[C@H](O)[C@H]3[C@@H](CCC4=CC(=O)CC[C@@]43C)[C@@H]1CC[C@@H]2C(=O)O` [Compound 525, 17β-carboxyl-11β-hydroxy-4-androsten-3one] as the compound, how does the “Inhibition … (significance, in words)” value [2] read?
The value was “did not significantly inhibit corneal vascularization”.

With `C[C@]12CC[C@@H](O)CC1CC[C@@H]1[C@@H]2[C@@H](O)C[C@@]2(C)[C@H]1CC[C@]2(O)C(=O)O` (stereo partly drawn) [Compound 526, 17β-carboxyl-3α,11β,17α-trihydroxy-androstane] as the compound, how does the “Inhibition … (significance, in words)” value [2] read?
The value was “did not significantly inhibit corneal vascularization”.

Which “Inhibition … (significance, in words)” value [2] does the source give for `C[C@]12CCC(=O)C=C1CC[C@@H]1[C@@H]2C(=O)C[C@@]2(C)[C@H]1CC[C@]2(O)C(=O)O` [Compound 527, 17β-carboxyl-17α-hydroxy-4-androsten-3,11-dione] here?
The value was “did not significantly inhibit corneal vascularization”.

For `C[C@@H]1C[C@H]2[C@@H]3C[C@H](F)C4=CC(=O)C=C[C@]4(C)[C@@]3(F)[C@@H](O)C[C@]2(C)[C@@]1(O)C(=O)O` [Compound 532, 6,9-difluoro-11β,17-dihydroxy-16α-methylpregna-1,4-diene-3-one-17β-carboxylic acid], which “Inhibition … (significance, in words)” value [2] is on record?
The value was “did cause significant inhibition of corneal vascularization; also recorded: ability of this compound to inhibit corneal neovascularization; also recorded: significant differences between vehicle and Compound 532 at all concentrations”.

And the “Neovascularization (total length of blood vessels in the cornea)” value ([2]; topical 0.01 percent)?
Its value is 355.4 ± 62.2.

And the “Percent Inhibition (total vessel length)” value ([2]; topical 0.01 percent)?
Its value is 12.3%.

What about the “Neovascularization (total length of blood vessels in the cornea)” value ([2]; topical 0.1 percent) of the same compound?
Its value is 322.0 ± 78.0.

What about the “Percent Inhibition (total vessel length)” value ([2]; topical 0.1 percent) of the same compound?
Its value is 20.6%.

What about the “Neovascularization (total length of blood vessels in the cornea)” value ([2]; topical 1.0 percent) of the same compound?
Its value is 202.2 ± 74.3.

What about the “Percent Inhibition (total vessel length)” value ([2]; topical 1.0 percent) of the same compound?
The value was 50.1%.

And the “Thymus weight difference between vehicle- and drug-treated groups (in words)” value (thymus; rat, in vivo)?
The value was “no significant difference between vehicle- and drug-treated groups”.

With `C[C@]12CC[C@H]3[C@@H](CCC4=CC(=O)CC[C@@]43C)[C@@H]1CC[C@@H]2C(=O)O` [Compound 1000, 4-androsten-3-one-17β-carboxylic acid] as the compound, how does the “Inhibition … (significance, in words)” value [2] read?
Its value is “did not significantly inhibit corneal vascularization”.

For `C[C@@H]1C[C@H]2[C@@H]3CCC4=CC(=O)C=C[C@]4(C)[C@@]3(F)[C@@H](O)C[C@]2(C)[C@@]1(O)C(=O)CO` [dexamethasone, reference compound], which “Reduction of thymus weight” value (thymus; topical 0.1 percent, similar experiment) is on record?
The value was 75%.

And the “Body weight less than control rats” value ([3]; topical 0.1 percent, end of four days of treatment)?
The value was 17%.

And the Neovasc. ([4]; 1 mg/kg/day subcutaneous)?
The Neovasc. was 9.3 ± 2.2%.

And the “Reduction of corneal neovascularization versus vehicle” value ([4]; 1 mg/kg/day subcutaneous)?
Its value is -39.6%.
